Data set [1] in a line: Pharmacokinetic study, oral administration, mouse plasma. The data set is classed as in vivo, mice. On the procedure: The experimental animals used can be those commonly used in pharmacokinetic experiments, e.g., adult and healthy rodents (e.g., mice, rats (such as Sprague-Dawley (SD) rats), guinea pigs) or non-rodents (rabbits, dogs, and monkeys). In the present disclosure, mice were used as the experimental animals.
The experimental animals were divided into two groups: a control group (for collecting blank plasma) and an orally administered group (dosed at 10 mg/kg or 30 mg/kg). Blood samples were collected at predetermined sampling time points after administration, such as 0.25 h, 0.5 h, 1 h, 2 h, 4 h, 8 h, and 24 h post-dosing. Blank plasma was collected from the control group.
Plasma samples were preprocessed before analysis: 10 μL of 50% acetonitrile and 200 μL of internal standard solution (containing 50 ng/mL dexamethasone in acetonitrile) were added to 10 μL of plasma samples. For the blank control group, the same volume of acetonitrile was added instead of the internal standard. The processed samples were vortexed, centrifuged, and the supernatant was taken for LC-MS/MS injection analysis.
After preparing standard curves and quality control (QC) samples, the concentrations of the compounds in the plasma samples were determined by LC-MS/MS analysis. Based on the plasma concentration data obtained from LC-MS/MS analysis, the pharmacokinetic parameters of the test compounds were calculated using the non-compartmental model in the pharmacokinetic calculation software WinNonlin v8.1.

Data set [2] has as its target IKZF3 protein (Homo sapiens (Human), UniProt Q96SW2+Q9UKT9). As to the kind of experiment: Western-blot assay of substrate protein degradation in hPBMC, IKZF3. It is filed as cell-based. Particulars: hPBMC cells, compound 500 nM, 24 hours, Western blot. In general terms: In western blotting, separated proteins are transferred to a membrane and probed.
Data set [3] deals with IKZF1 protein (Homo sapiens (Human), UniProt Q13422+Q96SW2). As to the kind of experiment: Western-blot assay of substrate protein degradation in hPBMC, IKZF1. The note with it: hPBMC cells, compound 500 nM, 24 hours, Western blot. The data set is classed as cell-based.
In data set [4] the target is human Cereblon WT GST-tagged protein (Homo sapiens (Human), UniProt Q96SW2). As to the kind of experiment: CRBN-binding affinity, HTRF (CEREBLON BINDING kit). Summed up: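 GST-tagged human WT Cereblon incubated with compound, then Thalidomide-Re tracer and anti-GST Eu antibody added. Displacement read by HTRF, reported as CRBN binding inhibition rate against blank control wells without protein.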

Data set [5] has as its target GSPT1 protein (Homo sapiens (Human), UniProt P15170+Q96SW2). As to the kind of experiment: Western-blot assay of substrate protein degradation in hPBMC, GSPT1. The data set is classed as cell-based. The note with it: hPBMC cells, compound 500 nM, 24 hours, Western blot.
Data set [6] deals with CCRF-CEM cells. As to the kind of experiment: Tumor cell proliferation IC50 (CCK-8), CCRF-CEM.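 Further: cell viability measured with CCK-8 reagent after compound treatment, IC50 taken from plotted growth inhibition curves.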 Particulars: Homo sapiens, 96 h, read-out: IC50 for inhibiting the proliferation of tumor cells, CCRF-CEM.
Data set [7] concerns MV-4-11 cells. In words: Tumor cell proliferation IC50 (CCK-8), MV-4-11. Particulars: Homo sapiens, MV4-11, 96 h, read-out: IC50 for inhibiting the proliferation of tumor cells, MV-4-11.
Procedure: (§1) The tumor cells used herein were cultured in a cell culture medium listed in table A at 37° C. in an incubator with 5% CO2.
(§2) After the cells were treated with the compounds of the present disclosure for a period of time, the cell viability detection reagent was added to the culture medium for cell viability assessment according to the instructions provided with the CCK-8 kit. […] The growth inhibition of the compounds of the present disclosure on cells was plotted by Prism Graphpad software, and the IC50 values of the compounds of the present disclosure were calculated therefrom.
The subject of data set [8] is MM.1S cells. As to the kind of experiment: Tumor cell proliferation IC50 (CCK-8), MM.1S.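 Further: viability of cultured cells read by CCK-8 reagent after compound exposure, growth inhibition curves fitted to derive IC50.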 The note with it: Homo sapiens, MM1.S, 72 h, read-out: IC50 for inhibiting the proliferation of tumor cells, MM.1S.
Data set [9] relates to Mino cells. In words: Tumor cell proliferation IC50 (CCK-8), Mino.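 Further: cell viability assessed with CCK-8 reagent after compound exposure, IC50 derived from plotted growth inhibition curves.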 Particulars: Homo sapiens, 72 h, read-out: IC50 for inhibiting the proliferation of tumor cells, Mino.
Procedure: as §1, §2
The subject of data set [10] is Daudi cells. In words: Tumor cell proliferation IC50 (CCK-8), Daudi.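 Further: cell viability read with CCK-8 reagent after compound exposure of Daudi cells, IC50 derived from plotted growth inhibition curves.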 The note with it: Homo sapiens, read-out: IC50 for inhibiting the proliferation of tumor cells, Daudi.
Procedure: as §1, §2

Structures are written as SMILES.

Chain of GSPT1 protein (P15170 whole entry): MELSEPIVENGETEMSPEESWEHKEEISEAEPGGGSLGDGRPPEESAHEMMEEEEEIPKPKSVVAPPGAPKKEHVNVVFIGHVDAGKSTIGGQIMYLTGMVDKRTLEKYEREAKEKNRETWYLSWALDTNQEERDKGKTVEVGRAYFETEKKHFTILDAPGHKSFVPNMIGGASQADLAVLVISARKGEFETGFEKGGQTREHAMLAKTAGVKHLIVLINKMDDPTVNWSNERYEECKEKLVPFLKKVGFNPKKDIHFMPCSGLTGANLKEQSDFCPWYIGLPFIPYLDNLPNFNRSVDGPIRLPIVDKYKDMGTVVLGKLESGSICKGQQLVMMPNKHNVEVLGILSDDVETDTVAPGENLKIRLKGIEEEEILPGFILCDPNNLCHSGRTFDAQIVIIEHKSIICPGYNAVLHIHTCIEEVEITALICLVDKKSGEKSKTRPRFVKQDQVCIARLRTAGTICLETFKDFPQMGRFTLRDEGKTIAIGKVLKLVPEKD
Chain of GSPT1 protein (Q96SW2 whole entry): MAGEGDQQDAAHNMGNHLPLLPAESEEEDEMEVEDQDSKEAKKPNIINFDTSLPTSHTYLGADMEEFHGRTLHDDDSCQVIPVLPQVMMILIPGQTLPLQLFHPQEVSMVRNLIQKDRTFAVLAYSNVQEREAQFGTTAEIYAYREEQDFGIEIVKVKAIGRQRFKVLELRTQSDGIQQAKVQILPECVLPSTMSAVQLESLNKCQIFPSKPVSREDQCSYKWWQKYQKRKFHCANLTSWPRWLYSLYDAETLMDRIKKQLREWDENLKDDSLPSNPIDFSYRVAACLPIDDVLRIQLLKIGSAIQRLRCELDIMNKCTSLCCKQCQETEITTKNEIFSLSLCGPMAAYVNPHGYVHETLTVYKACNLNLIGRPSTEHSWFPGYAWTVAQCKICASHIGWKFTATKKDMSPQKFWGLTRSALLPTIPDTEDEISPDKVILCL
Chain of GSPT1 protein (Q16531 whole entry partner): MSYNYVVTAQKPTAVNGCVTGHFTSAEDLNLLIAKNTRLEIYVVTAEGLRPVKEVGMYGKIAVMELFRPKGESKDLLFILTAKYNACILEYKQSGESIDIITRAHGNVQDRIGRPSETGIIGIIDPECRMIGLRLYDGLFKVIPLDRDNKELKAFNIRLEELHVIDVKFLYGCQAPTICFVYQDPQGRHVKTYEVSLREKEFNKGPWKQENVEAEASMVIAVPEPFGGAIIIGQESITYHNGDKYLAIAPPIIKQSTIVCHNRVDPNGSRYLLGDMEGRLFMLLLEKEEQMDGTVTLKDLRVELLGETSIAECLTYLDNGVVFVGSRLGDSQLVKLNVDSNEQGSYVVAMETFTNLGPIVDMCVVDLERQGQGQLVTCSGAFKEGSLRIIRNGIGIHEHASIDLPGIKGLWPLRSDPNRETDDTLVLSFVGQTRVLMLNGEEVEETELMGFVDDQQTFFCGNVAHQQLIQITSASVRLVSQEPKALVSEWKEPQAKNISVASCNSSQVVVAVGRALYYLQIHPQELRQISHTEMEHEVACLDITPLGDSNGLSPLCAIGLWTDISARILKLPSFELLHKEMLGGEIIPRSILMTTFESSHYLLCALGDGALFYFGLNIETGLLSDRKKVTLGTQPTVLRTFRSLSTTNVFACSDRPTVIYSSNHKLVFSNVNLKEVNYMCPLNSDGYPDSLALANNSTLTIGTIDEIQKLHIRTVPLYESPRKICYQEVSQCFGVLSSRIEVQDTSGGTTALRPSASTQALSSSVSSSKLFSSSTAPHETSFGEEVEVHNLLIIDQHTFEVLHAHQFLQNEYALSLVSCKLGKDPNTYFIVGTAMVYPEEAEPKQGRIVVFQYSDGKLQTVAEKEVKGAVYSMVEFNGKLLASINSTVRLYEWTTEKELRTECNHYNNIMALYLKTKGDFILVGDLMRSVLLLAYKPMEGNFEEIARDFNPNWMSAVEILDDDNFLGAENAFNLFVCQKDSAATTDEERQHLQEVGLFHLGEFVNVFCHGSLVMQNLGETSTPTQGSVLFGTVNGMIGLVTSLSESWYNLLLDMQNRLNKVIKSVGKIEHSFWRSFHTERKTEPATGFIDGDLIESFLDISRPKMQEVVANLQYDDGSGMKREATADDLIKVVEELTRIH
Chain of human Cereblon WT GST-tagged protein (Q96SW2 whole entry): as the sequence (Q96SW2 whole entry) above
Chain of IKZF1 protein (Q13422 whole entry): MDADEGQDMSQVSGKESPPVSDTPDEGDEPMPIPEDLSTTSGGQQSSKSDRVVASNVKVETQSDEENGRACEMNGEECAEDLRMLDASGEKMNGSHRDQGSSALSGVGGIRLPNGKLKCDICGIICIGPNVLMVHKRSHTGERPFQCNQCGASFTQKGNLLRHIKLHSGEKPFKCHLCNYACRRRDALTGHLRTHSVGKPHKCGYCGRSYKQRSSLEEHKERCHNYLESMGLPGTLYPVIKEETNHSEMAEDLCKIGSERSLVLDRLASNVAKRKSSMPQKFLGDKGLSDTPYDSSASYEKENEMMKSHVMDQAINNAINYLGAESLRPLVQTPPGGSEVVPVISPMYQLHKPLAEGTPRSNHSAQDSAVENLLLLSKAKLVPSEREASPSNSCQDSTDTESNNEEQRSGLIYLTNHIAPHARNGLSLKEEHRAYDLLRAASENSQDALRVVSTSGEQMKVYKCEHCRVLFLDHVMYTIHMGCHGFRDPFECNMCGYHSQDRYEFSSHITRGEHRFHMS
Chain of IKZF1 protein (Q96SW2 whole entry): as the sequence (Q96SW2 whole entry) above
Chain of IKZF1 protein (Q16531 whole entry partner): as the sequence (Q16531 whole entry partner) above
Chain of IKZF3 protein (Q9UKT9 whole entry): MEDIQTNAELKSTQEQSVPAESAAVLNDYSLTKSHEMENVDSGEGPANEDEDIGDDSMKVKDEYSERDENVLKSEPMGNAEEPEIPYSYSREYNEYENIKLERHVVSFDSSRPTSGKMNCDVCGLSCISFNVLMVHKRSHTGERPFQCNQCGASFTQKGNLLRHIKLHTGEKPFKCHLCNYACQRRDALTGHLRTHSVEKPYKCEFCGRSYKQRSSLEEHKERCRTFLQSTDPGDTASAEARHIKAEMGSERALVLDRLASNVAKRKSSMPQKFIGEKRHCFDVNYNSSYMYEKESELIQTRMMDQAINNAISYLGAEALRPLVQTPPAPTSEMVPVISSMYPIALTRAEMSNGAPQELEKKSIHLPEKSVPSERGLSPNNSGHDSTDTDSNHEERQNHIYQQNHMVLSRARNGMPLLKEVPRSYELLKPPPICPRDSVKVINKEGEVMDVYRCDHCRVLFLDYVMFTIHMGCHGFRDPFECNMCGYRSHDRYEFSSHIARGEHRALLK
Chain of IKZF3 protein (Q96SW2 whole entry): as the sequence (Q96SW2 whole entry) above
Chain of IKZF3 protein (Q16531 whole entry partner): as the sequence (Q16531 whole entry partner) above

What is called AUC(0-t) is the area under the concentration-time curve up to a stated or last time point. In data set [1] (p.o. 30 mg/kg), `CC1(C)CCC(CN2CCN(Cc3cccc4c3CN(C3CCC(=O)NC3=O)C4=O)CC2)=C(c2ccc(Cl)cc2)C1` (centres unmarked) [GT-03649, 3-(4-((4-((4′-chloro-5,5-dimethyl-3,4,5,6-tetrahydro-[1,1′-biphenyl]-2-yl)methyl)piperazin-1-yl)methyl)-1-oxoisoindolin-2-yl)piperidine-2,6-dione] displayed an AUC(0-t) of over 500 ng·h/mL.

`O=C1CCC(N2Cc3cc(CC4CN(C(=O)c5ccccc5-c5ccc(Cl)cc5)C4)ccc3C2=O)C(=O)N1` (centres unmarked) [GT-03922, 3-(5-((1-(4′-chloro-[1,1′-biphenyl]-2-carbonyl)azetidin-3-yl)methyl)-1-oxoisoindolin-2-yl)piperidine-2,6-dione] showed an AUC(0-t) in data set [1] (p.o. 10 mg/kg) of at most 500 ng·h/mL. The “residual substrate protein level, IKZF3” value in [2] is recorded as “A (A represents a residual substrate protein level of <50%)”. Further, the “residual substrate protein level, IKZF1” value in [3] is “A (A represents a residual substrate protein level of <50%)”. The compound also came in with an IC50 in data set [4] of 160 nM. In addition, the “residual substrate protein level, GSPT1” value in [5] was “A (A represents a residual substrate protein level of <50%)”.

For the compound `O=C1CCC(N2Cc3cc(CN4CCN(Cc5ccccc5-c5ccc(F)cc5)CC4)ccc3C2=O)C(=O)N1` (centres unmarked) [GT-04256, 3-(5-((4-((4′-fluoro-[1,1′-biphenyl]-2-yl)methyl)piperazin-1-yl)methyl)-1-oxoisoindolin-2-yl)piperidine-2,6-dione], the AUC(0-t) in data set [1] (p.o. 10 mg/kg) was at most 500 ng·h/mL. In addition, the “residual substrate protein level, IKZF3” value in data set [2] is “A (A represents a residual substrate protein level of <50%)”. The “residual substrate protein level, IKZF1” value in data set [3] is “A (A represents a residual substrate protein level of <50%)”. In data set [4], the IC50 was 1420 nM. In addition, the “residual substrate protein level, GSPT1” value in data set [5] is reported as “A (A represents a residual substrate protein level of <50%)”.

On to `CC1(C)CCC(CN2CCN(Cc3ccc4c(c3F)CN(C3CCC(=O)NC3=O)C4=O)CC2)=C(c2ccc(F)cc2)C1` (centres unmarked) [GT-05390, 3-(4-fluoro-5-((4-((4′-fluoro-5,5-dimethyl-3,4,5,6-tetrahydro-[1,1′-biphenyl]-2-yl)methyl)piperazin-1-yl)methyl)-1-oxoisoindolin-2-yl)piperidine-2,6-dione], for which the IC50 in [6] is 50 to 100 nM; in data set [7], 100 to 500 nM; in data set [8], 10 to 50 nM; in data set [9], 10 to 50 nM; in data set [4], 500 nM. Also, the “residual substrate protein level, IKZF3” value in data set [2] is listed as “A (A represents a residual substrate protein level of <50%)”. For the same compound, the “residual substrate protein level, IKZF1” value in data set [3] was “A (A represents a residual substrate protein level of <50%)”. In addition, in [5], the “residual substrate protein level, GSPT1” value was “A (A represents a residual substrate protein level of <50%)”.

On to `CC1(C)CCC(CN2CC3CCC(C2)N3Cc2cc3c(cc2F)C(=O)N(C2CCC(=O)NC2=O)C3)=C(c2ccc(Cl)cc2)C1` (centres unmarked) [GT-05494, 3-(5-((3-((4′-chloro-5,5-dimethyl-3,4,5,6-tetrahydro-[1,1′-biphenyl]-2-yl)methyl)-3,8-diazabicyclo[3.2.1]octan-8-yl)methyl)-6-fluoro-1-oxoisoindolin-2-yl)piperidine-2,6-dione], for which the IC50 was 100 to 500 nM in data set [6], 100 to 500 nM in data set [7] and 500 to 1000 nM in [8]. In addition, in data set [2], the “residual substrate protein level, IKZF3” value is on record as “A (A represents a residual substrate protein level of <50%)”. The “residual substrate protein level, IKZF1” value in data set [3] is given as “A (A represents a residual substrate protein level of <50%)”. Further, the “residual substrate protein level, GSPT1” value in [5] is “A (A represents a residual substrate protein level of <50%)”.

For the compound `O=C1CCC(N2Cc3cc(CN4CCN(Cc5ncccc5-c5ccc(Cl)cc5)CC4)ccc3C2=O)C(=O)N1` (centres unmarked) [GT-05778, 3-(5-((4-((3-(4-chlorophenyl)pyridin-2-yl)methyl)piperazin-1-yl)methyl)-1-oxoisoindolin-2-yl)piperidine-2,6-dione], the IC50 in [6] is under 5 nM; in data set [8], under 5 nM; in [9], under 5 nM; in data set [4], 560 nM; in [10], 5 to 10 nM. The “residual substrate protein level, IKZF3” value in data set [2] was “A (A represents a residual substrate protein level of <50%)”. The “residual substrate protein level, IKZF1” value in data set [3] was “A (A represents a residual substrate protein level of <50%)”. In addition, the “residual substrate protein level, GSPT1” value in [5] was “A (A represents a residual substrate protein level of <50%)”.

On to `O=C1CCC(N2Cc3cc(CN4CCN(Cc5ccccc5-c5ccco5)CC4)ccc3C2=O)C(=O)N1` (centres unmarked) [GT-05779, 3-(5-((4-(2-(furan-2-yl)benzyl)piperazin-1-yl)methyl)-1-oxoisoindolin-2-yl)piperidine-2,6-dione], for which the IC50 in data set [6] was 5 to 10 nM; in [8], 5 to 10 nM; in data set [9] it was 5 to 10 nM; in data set [4], 430 nM; in data set [10], 50 to 100 nM. Moreover, in data set [2], the “residual substrate protein level, IKZF3” value is given as “A (A represents a residual substrate protein level of <50%)”. Further, the “residual substrate protein level, IKZF1” value in [3] is given as “A (A represents a residual substrate protein level of <50%)”. In data set [5], the “residual substrate protein level, GSPT1” value was “A (A represents a residual substrate protein level of <50%)”.

On to `O=C1CCC(N2Cc3cc(CN4CCN(C(=O)c5ccccc5-c5ccc(Cl)cc5)CC4C(F)(F)F)ccc3C2=O)C(=O)N1` (centres unmarked) [GT-05789, 3-(5-((4-(4′-chloro-[1,1′-biphenyl]-2-carbonyl)-2-(trifluoromethyl)piperazin-1-yl)methyl)-1-oxoisoindolin-2-yl)piperidine-2,6-dione], for which the IC50 in [6] was 10 to 50 nM; in [8], 10 to 50 nM; in data set [9], 10 to 50 nM; in [4] it was 520 nM; in data set [10], 100 to 500 nM. Moreover, in data set [2], the “residual substrate protein level, IKZF3” value was “B (B represents a residual substrate protein level of >50%)”. Also, the “residual substrate protein level, IKZF1” value in data set [3] is on record as “B (B represents a residual substrate protein level of >50%)”. In data set [5], the “residual substrate protein level, GSPT1” value is “A (A represents a residual substrate protein level of <50%)”.

`CC1(C)CCC(CN2CCN(Cc3ccc4c(c3)CN(C3CCC(=O)NC3=O)C4=O)CC2)=C(c2cccs2)C1` (centres unmarked) [GT-05847, 3-(5-((4-((4,4-dimethyl-2-(thiophen-2-yl)cyclohex-1-en-1-yl)methyl)piperazin-1-yl)methyl)-1-oxoisoindolin-2-yl)piperidine-2,6-dione]: the IC50 in [6] is under 5 nM; in [8], under 5 nM; in data set [9], under 5 nM; in data set [4], 1000 nM; in data set [10], 10 to 50 nM. In addition, the “residual substrate protein level, IKZF3” value in data set [2] is “A (A represents a residual substrate protein level of <50%)”. In [3], the “residual substrate protein level, IKZF1” value was “A (A represents a residual substrate protein level of <50%)”. Besides, the “residual substrate protein level, GSPT1” value in data set [5] is “A (A represents a residual substrate protein level of <50%)”.

With `O=C1CCC(N2Cc3cc(CN4CCN(Cc5ccccc5-c5ccc(Cl)cn5)CC4)ccc3C2=O)C(=O)N1` (centres unmarked) [GT-05860, 3-(5-((4-(2-(5-chloropyridin-2-yl)benzyl)piperazin-1-yl)methyl)-1-oxoisoindolin-2-yl)piperidine-2,6-dione], the IC50 in data set [6] was 5 to 10 nM; in data set [8], under 5 nM; in data set [9] it was 5 to 10 nM; in data set [4], 560 nM; in [10], 10 to 50 nM. The “residual substrate protein level, IKZF3” value in data set [2] is reported as “A (A represents a residual substrate protein level of <50%)”. Further, the “residual substrate protein level, IKZF1” value in [3] was “A (A represents a residual substrate protein level of <50%)”. The “residual substrate protein level, GSPT1” value in [5] is on record as “A (A represents a residual substrate protein level of <50%)”.
